The record followed here is patent publication US8946243B2, “Compounds and methods for the treatment of viral infection” (The United States of America, as represented by the …, priority 2008, dated 2015).

Molecules are shown by their SMILES. Where two headings read alike, the source gives them in different places.

One series has as its system HIV-1 LAI.04. Kind of series: Anti-HIV activity in MT4 cell cultures: p24 production. The class given is cell-based. The note with it: for inhibition of HIV-1 (in words): MT-4 cell line, concentration of 5 μM. The procedure:
(§1) Human T-lymphocyte MT-4 or CEM cells were obtained from the American Type Culture Collection (Manassas, Va.) and cultivated in RPMI 1640 medium supplemented with 10% fetal bovine serum 2 mM L-glutamine and 0.075 M NaHCO3.
(§2) HIV-1(IIIB) was provided by Dr. R. C. Gallo and Dr. M. Popovic (at that time at the NCI, National Institutes of Health, Bethesda). A closely related HIV-1 variant (LAI.04) was obtained from the NIH AIDS Reagent Program.
Briefly, CEM cells (4.5×10^5 cells per ml) were suspended in fresh culture medium and infected with HIV-1 at 100 CCID50 (cell culture infective dose-50) per ml of cell suspension. Then 100 μl of the infected cell suspension were transferred to microplate wells, mixed with 100 μl of the appropriate dilutions of the test compounds, and further incubated at 37° C. After 4-5 days, giant cell formation was recorded microscopically in the CEM cell cultures. […] MT4 cells (1×10^4 cells per ml) were suspended in fresh culture medium and infected with 10 uL of HIV-1LAI.04 viral stock at 260 CCID50 (cell culture infective dose-50) per ml of cell suspension. Then infected cell suspensions were transferred to microplate wells, mixed with 1 mL of the appropriate dilutions of the test compounds, and further incubated at 37° C. […]

A short description of series [1]: Cytostatic activity in CEM cell cultures. Type of series: cell-based. The following applies: human, CEM T-lymphocyte cells. The procedure:
as §1

In the next series the test system is HIV-1 X4 LAI.04. As to the kind of experiment: HIV-1 replication in ex vivo human tonsillar tissue culture: p24gag in culture medium. The class given is cell-based. The note with it: for EC50 / EC90: Human immunodeficiency virus 1; for EC50 / EC90 / EC75: ex vivo human tonsillar tissue, X4 LAI.04, p24gag. The procedure: Tonsillar tissues from routine surgery were obtained from the Children's National Medical Center, Washington D.C. Tissues were dissected into 2-mm^3 blocks and placed onto collagen sponge gels at the air-liquid interface. Tissue blocks were cultured in RPMI 1640 medium containing 15% heat-inactivated fetal calf serum, nonessential amino acids (1 mM), sodium pyruvate (1 mM), amphotericin B (2.5 μg/mL) and gentamicin (50 μg/mL). The culture medium was changed every 3 days and prodrugs were replenished. Blocks of human lymphoid tonsillar tissues were inoculated ex vivo with X4LAI.04 and treated with increasing concentration of each prodrug (0,1; 0.5; 1; 5 and 10 μM). HIV-1 replication was monitored by measuring p24gag accumulated in culture media over 3 day periods. For each donor, HIV-1 replication in 9 treated blocks was compared with that in 9 untreated blocks from the same donor.

Another series has as its system HIV-1(IIIB). Kind of series: Anti-HIV activity in CEM cell cultures: prevention of giant cell (syncytium) formation, HIV-1(IIIB). Type of series: cell-based. The note with it: concentration preventing syncytium formation by 50%, 4-5 days. The procedure:
as §1, §2
Briefly, CEM cells (4.5×10^5 cells per ml) were suspended in fresh culture medium and infected with HIV-1 at 100 CCID50 (cell culture infective dose-50) per ml of cell suspension. Then 100 μl of the infected cell suspension were transferred to microplate wells, mixed with 100 μl of the appropriate dilutions of the test compounds, and further incubated at 37° C. After 4-5 days, giant cell formation was recorded microscopically in the CEM cell cultures. […] MT4 cells (1×10^4 cells per ml) were suspended in fresh culture medium and infected with 10 uL of HIV-1LAI.04 viral stock at 260 CCID50 (cell culture infective dose-50) per ml of cell suspension. Then infected cell suspensions were transferred to microplate wells, mixed with 1 mL of the appropriate dilutions of the test compounds, and further incubated at 37° C. After 7 days, p24 production was measured in the MT4 cell cultures supernatant.

The subject of the next series is HIV-2(ROD). As to the kind of experiment: Anti-HIV activity in CEM cell cultures: prevention of giant cell (syncytium) formation, HIV-2(ROD). Type of series: cell-based. The note with it: Human immunodeficiency virus 2, CCRF-CEM, read-out: EC50 HIV-2(ROD).
The target of another series is HIV-1 RT (Human immunodeficiency virus type 1 group M subtype B, UniProt P03366). Kind of series: Inhibition of HIV-1 RT. The class given is biochemical.
The mark [2] stands for this setting: MT4 cell cultures, HIV-1 LAI.04, 50% suppression of p24 production, read-out: EC50.
Setting [3] is: Human immunodeficiency virus 1, IIIB, CCRF-CEM, read-out: EC50 HIV-1(IIIB), CEM cell cultures.
Where [4] appears, read: Human immunodeficiency virus 1, MT4.
Setting [5] is: CEM cell cultures, 50% effective concentration.

Turning to `Nc1nc2c(ncn2COCCOP(=O)(O)O)c(=O)[nH]1` [ACV monophosphate, reference compound], in the series with HIV-1 LAI.04 (setting [2]), the EC50 (commonly the concentration needed to bring the measured effect to its halfway point) came out at 100 µM. The “inhibition of HIV-1 (in words)” value in the series with HIV-1 LAI.04 is “inefficient”.

On to `COC(=O)[C@H](C)NP(=O)(OCCOCn1cnc2c(=O)[nH]c(N)nc21)Oc1cccc2ccccc12` (stereo partly drawn) [Cf 2649, acyclovir-[1-naphthyl(methoxy-L-alaninyl)]phosphate], for which the CC50 (commonly the concentration that lowers cell viability or growth by half) in series [1] turned out to be 57 µM. Moreover, the EC50 in the series on HIV-1 X4 LAI.04 is < 100 nM; in the series with HIV-1(IIIB) (setting [3]) it was 9.7 µM; in the series on HIV-1 LAI.04 (setting [4]) it was 3 µM; with HIV-2(ROD), 9.3 µM. It took 100 nM to reach the 90% level in the series with HIV-1 X4 LAI.04 (EC90). In addition, the EC75 (in general, the point of the concentration-response curve where the effect stands at 75%) in the series on HIV-1 X4 LAI.04 was <0.1 µM. The “suppression of HIV-1 replication, time course (FIG. 1, in words)” value in the series on HIV-1 X4 LAI.04 (human tonsillar tissue, 27 blocks, LAI.04, drug replenished every three days, p24 ELISA) was “efficient suppression of HIV replication”. Besides, the inhibition (commonly the drop in the measured response relative to a control, in per cent) at 5 µM in the series with HIV-1 LAI.04 (Human immunodeficiency virus 1, MT4, read-out: inhibition of replication of HIV-1) came out at 99%. The “dose-dependency of HIV suppression (FIG. 2, in words)” value with HIV-1 LAI.04 (MT4 cells, LAI.04, day 3 post-infection, p24 ELISA) was “suppression of HIV replication by the drug in dose-dependent manner”.

With `Nc1nc2c(ncn2COCCO)c(=O)[nH]1` [ACV, Acyclovir, reference compound], the CC50 in series [1] was > 250 µM. In addition, the “inhibition of HIV-1 (in words)” value in the series with HIV-1 LAI.04 is reported as “inefficient”. Further, the “effect on replication of HIV-1 (in words)” value in the series with HIV-1 LAI.04 (MT-4 cells, at low concentrations) is on record as “does not affect HIV-1 replication at all”. In addition, the EC50 in the series with HIV-2(ROD) (setting [5]) was > 250 µM.

For `Nc1nc2c(ncn2COCCOP(=O)(N[C@@H](Cc2ccccc2)C(=O)OCc2ccccc2)Oc2ccccc2)c(=O)[nH]1` (stereo partly drawn) [Cf 2650, acyclovir-[1-phenyl-(benzoxy-L-phenylalaninyl)]phosphate], the CC50 in series [1] was found to be 42 µM. The EC50 in the series with HIV-1 X4 LAI.04 was < 100 nM; in the series with HIV-1(IIIB) (setting [3]), 24 µM; with HIV-1 LAI.04 (setting [4]) it was 16 µM; in the series on HIV-2(ROD), 21 µM. For the same molecule, the EC90 (commonly the concentration at which the effect reaches the 90% level) in the series on HIV-1 X4 LAI.04 was 3000 nM. This molecule came in with a concentration for an effect of 75% (EC75) in the series on HIV-1 X4 LAI.04 of 1.5 µM.

Take `Nc1nc(O)c2ncn(COC(CO)CO)c2n1` [GCV, Ganciclovir, reference compound]: the CC50 in series [1] is > 250 µM. The EC50 in the series with HIV-1(IIIB) (Human immunodeficiency virus 1, IIIB, CCRF-CEM, CEM cell cultures, read-out: EC50 HIV-1(IIIB)) was > 250 µM; in the series with HIV-2(ROD) (setting [5]), > 250 µM.

In series [1], `C[C@H](NP(=O)(OCCOCn1cnc2c(=O)[nH]c(N)nc21)Oc1cccc2ccccc12)C(=O)OCc1ccccc1` (stereo partly drawn) [Cf 2574, acyclovir-[1-naphthyl(benzoxy-L-alaninyl)]phosphate] yielded a CC50 of 17 µM. Further, the EC50 in the series with HIV-1 X4 LAI.04 was < 100 nM; with HIV-1(IIIB) (setting [3]), 17.5 µM; with HIV-1 LAI.04 (setting [4]), 0.8 µM; in the series on HIV-2(ROD), 7.3 µM. Also, the EC90 in the series on HIV-1 X4 LAI.04 was determined as 900 nM. The EC75 in the series on HIV-1 X4 LAI.04 was found to be 0.62 µM.

As for `Nc1nc2c(ncn2COCCOP(=O)(O)OP(=O)(O)OP(=O)(O)O)c(=O)[nH]1` [ACV triphosphate, reference compound], the “inhibition of HIV-1 RT (in words)” value against HIV-1 RT was “potent inhibitor”. Further, the EC50 in the series with HIV-1 LAI.04 (setting [2]) turned out to be 50 µM.

Regarding `C[C@H](NP(=O)(OCCOCn1cnc2c(=O)[nH]c(N)nc21)Oc1ccccc1)C(=O)OCc1ccccc1` (stereo partly drawn) [Cf 2648, acyclovir-[1-phenyl-(benzoxy-L-alaninyl)]phosphate], in series [1], the CC50 was found to be 33 µM. Besides, the EC50 was < 100 nM in the series on HIV-1 X4 LAI.04, 3.2 µM in the series on HIV-1(IIIB) (setting [3]), 8 µM with HIV-1 LAI.04 (setting [4]) and 8.8 µM in the series on HIV-2(ROD). The same molecule yielded an EC90 in the series with HIV-1 X4 LAI.04 of 550 nM. The EC75 in the series with HIV-1 X4 LAI.04 is <0.1 µM.

For the molecule `COC(=O)[C@H](C)NP(=O)(OCCOCn1cnc2c(=O)[nH]c(N)nc21)Oc1ccccc1` (stereo partly drawn) [Cf 1811, acyclovir-[1-phenyl-(methoxy-L-alaninyl)]phosphate], the CC50 in series [1] stood at 67 µM. Also, the EC50 in the series on HIV-1 X4 LAI.04 was < 100 nM; in the series on HIV-1(IIIB) (setting [3]), 16 µM; in the series with HIV-1 LAI.04 (setting [4]), 15 µM; in the series on HIV-2(ROD), 26 µM. For the same molecule, the 90% effect level with HIV-1 X4 LAI.04 (EC90) was put at 500 nM. This molecule also returned an EC75 in the series on HIV-1 X4 LAI.04 of 0.1 µM.

In series [1], `CCCOC(=O)[C@H](C)NP(=O)(OCCOCn1cnc2c(=O)[nH]c(N)nc21)Oc1cccc2ccccc12` (stereo partly drawn) [Cf 2629, acyclovir-[1-naphthyl(n-propoxy-L-alaninyl)]phosphate] displayed a CC50 of 22 µM. Moreover, the EC50 with HIV-1 X4 LAI.04 is < 100 nM; in the series with HIV-1(IIIB) (setting [3]), 3.2 µM; with HIV-1(IIIB) (read-out: EC50 HIV-1(IIIB), CEM cell cultures), 3.4 µM; in the series with HIV-1 LAI.04 (setting [4]), 10 µM; in the series with HIV-2(ROD) it was 7.4 µM. In the series on HIV-1 X4 LAI.04, this molecule gave an EC90 of 1500 nM. In the series with HIV-1 X4 LAI.04, the EC75 amounted to 0.4 µM.
